Test results: PubChem BioAssay (NCI)
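Test compounds were applied to cells in 96-well plates for 48 hours at 5 doses. Here, GI50 denotes the concentration required for 50% inhibition of growth. TGI: total growth inhibition.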

Experiments:
Experiment in all cases: inhibition of tumour cell growth, NCI panel, 48 h
[1] = system: DU-145 prostate
[2] = system: SF-295 CNS
[3] = system: LOX IMVI melanoma
[4] = system: HS 578T breast
[5] = system: UACC-62 melanoma
[6] = system: K-562 leukemia
[7] = system: MDA-MB-435
[8] = system: NCI-H23 lung
[9] = system: HCC-2998 colon
[10] = system: T-47D breast
[11] = system: CAKI-1 renal
[12] = system: OVCAR-4 ovarian
[13] = system: OVCAR-3 ovarian
[14] = system: NCI-H522 lung
[15] = system: SF-268 CNS
[16] = system: EKVX NSCLC
[17] = system: BT-549 breast
[18] = system: PC-3 prostate
[19] = system: A498 renal
[20] = system: IGROV1 ovarian
[21] = system: M14 melanoma
[22] = system: SN12C renal
[23] = system: TK-10 renal
[24] = system: NCI-H460 lung
[25] = system: SK-MEL-28 melanoma
[26] = system: SW-620 colon
[27] = system: HOP-92 NSCLC
[28] = system: MALME-3M melanoma
[29] = system: MDA-MB-468 breast

For C=C1CCC2C3(C)COC(c4c(F)cccc4F)OC3CCC2(C)C1C/C=C1/C(=O)OCC1O (stereo not drawn), the GI50 [1] was 4.16 µM, the TGI [1] was 14.9 µM and the GI50 [2] was 1.94 µM. For the same compound, the TGI [2] was 4.67 µM, the GI50 [3] was 1.59 µM and the TGI [3] was 2.93 µM. The GI50 [4] was 3.92 µM, the TGI [4] was 30.5 µM and the GI50 [5] was 3.13 µM. The TGI [5] was 12 µM, the GI50 [6] was 3.12 µM and the TGI [6] was 11.3 µM. The GI50 [7] was 1.97 µM, the TGI [7] was 4.37 µM and the GI50 [8] was 5.66 µM. For the same compound, the TGI [8] was 18.5 µM, the GI50 [9] was 4.26 µM and the TGI [9] was 15.8 µM. The GI50 [10] was 3.25 µM, the TGI [10] was 17.6 µM and the GI50 [11] was 3.38 µM. It also gave a TGI [11] of 11.3 µM, a GI50 [12] of 2.58 µM and a TGI [12] of 7.77 µM. The GI50 [13] was 2.02 µM, the TGI [13] was 4.12 µM and the GI50 [14] was 1.65 µM. For the same compound, the TGI [14] was 3.23 µM, the GI50 [15] was 4.4 µM and the TGI [15] was 17.2 µM. It also gave a GI50 [16] of 13 µM, a TGI [16] of 26.1 µM and a GI50 [17] of 1.89 µM. The TGI [17] was 4.17 µM, the GI50 [18] was 3.61 µM and the TGI [18] was 13.4 µM. The GI50 [19] was 19.8 µM, the TGI [19] was 34.5 µM and the GI50 [20] was 4.56 µM. It also gave a TGI [20] of 16.5 µM, a GI50 [21] of 3.34 µM and a TGI [21] of 12 µM. For the same compound, the GI50 [22] was 1.81 µM, the TGI [22] was 4.2 µM and the GI50 [23] was 6.18 µM. It also gave a TGI [23] of 19.4 µM, a GI50 [24] of 3.06 µM and a TGI [24] of 11.8 µM. For the same compound, the GI50 [25] was 2.19 µM, the TGI [25] was 4.9 µM and the GI50 [26] was 1.8 µM. For the same compound, the TGI [26] was 3.63 µM, the GI50 [27] was 2.94 µM and the TGI [27] was 9.34 µM. For the same compound, the GI50 [28] was 3.55 µM, the TGI [28] was 12.8 µM and the GI50 [29] was 1.78 µM. The TGI [29] was 3.58 µM.
